Test results reported in PubChem BioAssay AID2060912 (Molecular Pharmacology Branch, DTP, NCI, 2025).

Tested on: HUVEC/MSC spheroids viability
Test: Human HUVEC/MSC cell line growth inhibition [KRAS2];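 for viability, T/C: percent of DMSO vehicle control luminescence so 100% = untreated viability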
Settings: for IC50: curve of first compound; for viability, T/C: stronger effect = lower value
Outline: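 Spheroids of human HUVEC plus MSCs, without tumor cells, were treated with single agents and combinations. Each drug was tested in half-log steps down from near its clinical Cmax, or from 10 microM when Cmax was unknown. HUVEC and hMSC were used at passage </=5.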

[1] = second compound 0.0316 µM, first compound 0.0316 µM
[2] = second compound 0.0316 µM, first compound 0.1 µM
[3] = second compound 0.0316 µM, first compound 0.316 µM
[4] = second compound 0.0316 µM, first compound 1 µM
[5] = second compound 0.0316 µM, first compound 3.16 µM
[6] = second compound 0.0316 µM, first compound 10 µM
[7] = second compound 0.1 µM, first compound 0.0316 µM
[8] = second compound 0.1 µM, first compound 0.1 µM
[9] = second compound 0.1 µM, first compound 0.316 µM
[10] = second compound 0.1 µM, first compound 1 µM
[11] = second compound 0.1 µM, first compound 3.16 µM
[12] = second compound 0.1 µM, first compound 10 µM
[13] = second compound 0.316 µM, first compound 0.0316 µM
[14] = second compound 0.316 µM, first compound 0.1 µM
[15] = second compound 0.316 µM, first compound 0.316 µM
[16] = second compound 0.316 µM, first compound 1 µM
[17] = second compound 0.316 µM, first compound 3.16 µM
[18] = second compound 0.316 µM, first compound 10 µM
[19] = second compound 1 µM, first compound 0.0316 µM
[20] = second compound 1 µM, first compound 0.1 µM
[21] = second compound 1 µM, first compound 0.316 µM
[22] = second compound 1 µM, first compound 1 µM
[23] = second compound 1 µM, first compound 3.16 µM
[24] = second compound 1 µM, first compound 10 µM
[25] = second compound 3.16 µM, first compound 0.0316 µM
[26] = second compound 3.16 µM, first compound 0.1 µM
[27] = second compound 3.16 µM, first compound 0.316 µM
[28] = second compound 3.16 µM, first compound 1 µM
[29] = second compound 3.16 µM, first compound 3.16 µM
[30] = second compound 3.16 µM, first compound 10 µM
[31] = second compound 10 µM, first compound 0.0316 µM
[32] = second compound 10 µM, first compound 0.1 µM
[33] = second compound 10 µM, first compound 0.316 µM
[34] = second compound 10 µM, first compound 1 µM
[35] = second compound 10 µM, first compound 3.16 µM
[36] = second compound 10 µM, first compound 10 µM

CC(C)NCC(C(=O)N1CCN(c2ncnc3c2C(C)CC3O)CC1)c1ccc(Cl)cc1 (stereo unspecified) + CC1OCC2(CCN(c3cnc(Sc4ccnc(N)c4Cl)c(N)n3)CC2)C1N showed an IC50 (second compound 0.0316 µM) of 7.88 µM, an IC50 (second compound 0.1 µM) of 6.15 µM and an IC50 (second compound 0.316 µM) of 2.55 µM. It also gave an IC50 (second compound 1 µM) of 1.31 µM, an IC50 (second compound 3.16 µM) of 0.564 µM and an IC50 (second compound 10 µM) of 0.228 µM. It also gave a viability, T/C [1] of 115%, a viability, T/C [2] of 109% and a viability, T/C [3] of 93.5%. It also gave a viability, T/C [4] of 66.2%, a viability, T/C [5] of 56.2% and a viability, T/C [6] of 47.6%. It also gave a viability, T/C [7] of 123%, a viability, T/C [8] of 107% and a viability, T/C [9] of 90.9%. For the same molecule, the viability, T/C [10] was 59.6%, the viability, T/C [11] was 57.3% and the viability, T/C [12] was 46.1%. The viability, T/C [13] was 94.1%, the viability, T/C [14] was 107% and the viability, T/C [15] was 98.1%. The viability, T/C [16] was 68.1%, the viability, T/C [17] was 49.5% and the viability, T/C [18] was 38%. The viability, T/C [19] was 89.6%, the viability, T/C [20] was 91% and the viability, T/C [21] was 69.8%. The viability, T/C [22] was 56.4%, the viability, T/C [23] was 36.4% and the viability, T/C [24] was 31.6%. For the same molecule, the viability, T/C [25] was 80.3%, the viability, T/C [26] was 74.4% and the viability, T/C [27] was 58.3%. The viability, T/C [28] was 43.1%, the viability, T/C [29] was 22.1% and the viability, T/C [30] was 21%. For the same molecule, the viability, T/C [31] was 65.1%, the viability, T/C [32] was 62.4% and the viability, T/C [33] was 43.4%. The viability, T/C [34] was 30.8%, the viability, T/C [35] was 14.3% and the viability, T/C [36] was 5.59%.

CCN1CCN(Cc2ccc(Nc3ncc(F)c(-c4cc(F)c5nc(C)n(C(C)C)c5c4)n3)nc2)CC1 + CC1OCC2(CCN(c3cnc(Sc4ccnc(N)c4Cl)c(N)n3)CC2)C1N was tested, and the IC50 (second compound 0.0316 µM) was > 1 µM, the IC50 (second compound 0.1 µM) was > 1 µM and the IC50 (second compound 0.316 µM) was > 1 µM. The IC50 (second compound 1 µM) was > 1 µM, the IC50 (second compound 3.16 µM) was > 1 µM and the IC50 (second compound 10 µM) was > 1 µM. The viability, T/C (second compound 0.0316 µM, first compound 0.00316 µM) was 105%, the viability, T/C (second compound 0.0316 µM, first compound 0.01 µM) was 105% and the viability, T/C [1] was 95.6%. The viability, T/C [2] was 111%, the viability, T/C [3] was 124% and the viability, T/C [4] was 121%. For the same molecule, the viability, T/C (second compound 0.1 µM, first compound 0.00316 µM) was 111%, the viability, T/C (second compound 0.1 µM, first compound 0.01 µM) was 105% and the viability, T/C [7] was 117%. It also gave a viability, T/C [8] of 93.4%, a viability, T/C [9] of 123% and a viability, T/C [10] of 114%. For the same molecule, the viability, T/C (second compound 0.316 µM, first compound 0.00316 µM) was 108%, the viability, T/C (second compound 0.316 µM, first compound 0.01 µM) was 108% and the viability, T/C [13] was 102%. The viability, T/C [14] was 96.9%, the viability, T/C [15] was 117% and the viability, T/C [16] was 114%. It also gave a viability, T/C (second compound 1 µM, first compound 0.00316 µM) of 94.3%, a viability, T/C (second compound 1 µM, first compound 0.01 µM) of 95.9% and a viability, T/C [19] of 85.6%. For the same molecule, the viability, T/C [20] was 96%, the viability, T/C [21] was 102% and the viability, T/C [22] was 114%. It also gave a viability, T/C (second compound 3.16 µM, first compound 0.00316 µM) of 81.1%, a viability, T/C (second compound 3.16 µM, first compound 0.01 µM) of 84.8% and a viability, T/C [25] of 88.2%. The viability, T/C [26] was 80%, the viability, T/C [27] was 96.2% and the viability, T/C [28] was 87.2%. It also gave a viability, T/C (second compound 10 µM, first compound 0.00316 µM) of 74.8%, a viability, T/C (second compound 10 µM, first compound 0.01 µM) of 66% and a viability, T/C [31] of 67.2%. The viability, T/C [32] was 62.3%, the viability, T/C [33] was 84.1% and the viability, T/C [34] was 91.2%.

With CCNC(=O)CC1N=C(c2ccc(Cl)cc2)c2cc(OC)ccc2-n2c(C)nnc21 (stereo unspecified) + CC1OCC2(CCN(c3cnc(Sc4ccnc(N)c4Cl)c(N)n3)CC2)C1N the IC50 (second compound 0.0316 µM) was > 10 µM, the IC50 (second compound 0.1 µM) was > 10 µM and the IC50 (second compound 0.316 µM) was > 10 µM. For the same molecule, the IC50 (second compound 1 µM) was > 10 µM, the IC50 (second compound 3.16 µM) was > 10 µM and the IC50 (second compound 10 µM) was 3.02 µM. The viability, T/C [1] was 79.7%, the viability, T/C [2] was 102% and the viability, T/C [3] was 99.2%. The viability, T/C [4] was 87.5%, the viability, T/C [5] was 110% and the viability, T/C [6] was 89.4%. For the same molecule, the viability, T/C [7] was 107%, the viability, T/C [8] was 86.2% and the viability, T/C [9] was 102%. For the same molecule, the viability, T/C [10] was 91.8%, the viability, T/C [11] was 99% and the viability, T/C [12] was 95.3%. For the same molecule, the viability, T/C [13] was 90.6%, the viability, T/C [14] was 88.6% and the viability, T/C [15] was 87.1%. The viability, T/C [16] was 88.2%, the viability, T/C [17] was 88% and the viability, T/C [18] was 84.1%. It also gave a viability, T/C [19] of 79.3%, a viability, T/C [20] of 97.8% and a viability, T/C [21] of 76.6%. It also gave a viability, T/C [22] of 68.4%, a viability, T/C [23] of 77.2% and a viability, T/C [24] of 58.8%. The viability, T/C [25] was 83.5%, the viability, T/C [26] was 103% and the viability, T/C [27] was 81.4%. It also gave a viability, T/C [28] of 73.8%, a viability, T/C [29] of 66% and a viability, T/C [30] of 51.3%. For the same molecule, the viability, T/C [31] was 66%, the viability, T/C [32] was 64.5% and the viability, T/C [33] was 77.8%. The viability, T/C [34] was 64%, the viability, T/C [35] was 49.6% and the viability, T/C [36] was 30%.
